Test results reported in patent US12071411B2, “Inhibitors of HIF-2α and methods of use thereof” (ARCUS BIOSCIENCES, INC., priority 2021, dated 2024).
pIC50: −log10 of the molar value.

How the values were obtained:
[1] = target: T1, Biotin tagged HIF-2α protein containing PAS-B domain (240-350) (Homo sapiens, UniProt Q99814); test: HIF-2α Scintillation Proximity Assay (SPA) binding assay; conditions: 50 nM HIF-2α protein, 25 nM 3H-tracer, 2% DMSO
T1 construct: Biotin tagged HIF-2α protein containing PAS-B domain (240-350) was prepared and purified in-house; made in house
T1 sequence (Q99814 240-350): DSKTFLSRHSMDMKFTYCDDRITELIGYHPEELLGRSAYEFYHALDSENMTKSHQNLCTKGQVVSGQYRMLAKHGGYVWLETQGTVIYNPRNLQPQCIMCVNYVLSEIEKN
Experimental: HIF-2α Scintillation Proximity Assay (SPA) Binding Assay:
Biotin tagged HIF-2α protein containing PAS-B domain (240-350) was prepared and purified in-house.
Compounds solubilized in DMSO were dispensed into a white 384-well polystyrene non-binding flat clear bottom plate (Greiner Bio-One, Cat #781903) using an HP D300 dispenser. Ten microliters of biotinylated HIF-2α protein in buffer (25 mM Tris-HCl, pH 7.4, 150 mM NaCl, 0.15% BSA and 0.001% Tween 20) was added to the compound wells and allowed to incubate for 1 hour at room temperature. Ten microliters of SPA bead mix were added to the wells and incubated for an additional 45 minutes, followed by 10 ul of ^3H-tracer solution. Final assay conditions comprised 50 nM HIF-2α protein, 25 nM radiolabeled tracer and 3 ug beads per well with compounds in 2% DMSO. The plate was read using a MicroBeta Microplate Counter (PerkinElmer) for luminescence detection. The IC50 values of the test compounds were determined from compound dose response curves fitted using a standard four parameter fit equation and are reported in Table 2.

HIF-2α [2] = target: T2, HIF-2α (Homo sapiens, UniProt Q99814); test: HIF-2α Luciferase Reporter Assay (serum free) in HIF-Luc-786-0 cells; format: cell-based; conditions: Opti-MEM, 786-0 reporter cells, 20 hours incubation
T2 sequence (Q99814 whole entry): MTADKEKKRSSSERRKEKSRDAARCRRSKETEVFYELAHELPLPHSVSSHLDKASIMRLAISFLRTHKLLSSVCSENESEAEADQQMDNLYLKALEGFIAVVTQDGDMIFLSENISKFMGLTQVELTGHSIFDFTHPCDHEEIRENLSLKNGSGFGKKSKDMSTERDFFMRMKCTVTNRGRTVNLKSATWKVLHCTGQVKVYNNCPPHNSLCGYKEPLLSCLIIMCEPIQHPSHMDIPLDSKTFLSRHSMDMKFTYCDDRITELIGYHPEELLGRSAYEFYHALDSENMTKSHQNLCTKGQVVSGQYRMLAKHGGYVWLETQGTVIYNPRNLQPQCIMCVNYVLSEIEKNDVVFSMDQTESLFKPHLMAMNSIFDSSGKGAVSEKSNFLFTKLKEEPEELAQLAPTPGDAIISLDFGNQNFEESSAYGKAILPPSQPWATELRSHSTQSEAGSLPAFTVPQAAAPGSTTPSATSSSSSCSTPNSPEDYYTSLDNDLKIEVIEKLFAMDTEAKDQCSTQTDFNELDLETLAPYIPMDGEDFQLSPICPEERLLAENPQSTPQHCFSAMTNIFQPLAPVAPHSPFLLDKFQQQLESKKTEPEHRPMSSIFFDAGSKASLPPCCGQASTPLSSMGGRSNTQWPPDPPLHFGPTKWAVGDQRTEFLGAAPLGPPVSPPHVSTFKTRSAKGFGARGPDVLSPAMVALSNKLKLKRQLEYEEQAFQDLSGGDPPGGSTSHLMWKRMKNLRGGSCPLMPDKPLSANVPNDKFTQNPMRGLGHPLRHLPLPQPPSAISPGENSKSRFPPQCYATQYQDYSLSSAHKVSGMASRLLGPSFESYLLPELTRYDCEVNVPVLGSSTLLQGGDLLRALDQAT
In short: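 786-0 cells stably transduced with HIF luciferase reporter, 20,000 cells/well in serum-free Opti-MEM, compounds (50 uM downward, 1% DMSO) 20 h at 37 °C. ONE-Glo luminescence normalized to DMSO and no-cell controls; IC50 from four-parameter fit.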

HIF-2α [3] = target: T2, HIF-2α; test: HIF-2α Luciferase Reporter Assay (serum), HRE-luciferase 786-0 cells in 100% human serum; format: cell-based; conditions: for pIC50: 100% human serum, 786-0 reporter cells, overnight incubation, read-out: Serum Potency; for Serum Shift (approximate): ratio of IC50 in 100% serum to IC50 in serum free conditions
In short: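 786-0 cells stably expressing an HRE-luciferase reporter were plated and rested 3 h. They were then treated overnight at 37 °C with compound diluted in 100% human serum. Serum was replaced with Opti-MEM, ONE-Glo luminescence was read, and IC50 came from a 4-parameter logistic fit.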

| pIC50 [1] | pIC50 (HIF-2α [2]) | pIC50 (HIF-2α [3]) | Serum Shift (approximate) (HIF-2α [3]) | Compound |
| --- | --- | --- | --- | --- |
| 6.00 to 7.00 | 6.00 to 7.00 | < 6.00 | 3 | O[C@H]1c2c(C(F)(F)F)nn(CCC3(F)COC3)c2CCC1(F)F [Example 21, (4S)-5,5-difluoro-1-[2-(3-fluorooxetan-3-yl)ethyl]-3-(trifluoromethyl)-4,5,6,7-tetrahydro-1H-indazol-4-ol] |
| 6.00 to 7.00 | 6.00 to 7.00 | < 6.00 | 10 | O[C@H]1c2c(C(F)(F)F)nn(CCC3CC3)c2CCC1(F)F [Example 22, (4S)-1-(2-cyclopropylethyl)-5,5-difluoro-3-(trifluoromethyl)-4,5,6,7-tetrahydro-1H-indazol-4-ol] |
| 6.00 to 7.00 | 6.00 to 7.00 | < 6.00 | 7 | O[C@H]1c2c(C(F)(F)F)nn(CCCC(F)F)c2CCC1(F)F [Example 31, (4S)-1-(4,4-difluorobutyl)-5,5-difluoro-3-(trifluoromethyl)-6,7-dihydro-4H-indazol-4-ol] |
| 6.00 to 7.00 | > 7.00 | 6.00 to 7.00 | 10 | CC(F)(F)CCn1nc(C(F)(F)F)c2c1CCC(F)(F)[C@H]2O [Example 32, (4S)-1-(3,3-difluorobutyl)-5,5-difluoro-3-(trifluoromethyl)-6,7-dihydro-4H-indazol-4-ol] |
| 6.00 to 7.00 | 6.00 to 7.00 | < 6.00 | 9 | O[C@H]1c2c(C(F)(F)F)nn(CCC(F)(F)F)c2CCC1(F)F [Example 33, (4S)-5,5-difluoro-3-(trifluoromethyl)-1-(3,3,3-trifluoropropyl)-6,7-dihydro-4H-indazol-4-ol] |
| 6.00 to 7.00 | 6.00 to 7.00 | < 6.00 | 7 | CC(CCn1nc(C#N)c2c1CCC(F)(F)[C@H]2O)C(F)(F)F (stereo partly drawn) [Example 49, (4S)-5,5-difluoro-4-hydroxy-1-(4,4,4-trifluoro-3-methylbutyl)-6,7-dihydro-4H-indazole-3-carbonitrile] |
| > 7.00 | > 7.00 | 6.00 to 7.00 | 3 | O[C@H]1c2c(C(F)(F)F)nn(CCC3CC3(F)F)c2CC1(F)F (stereo partly drawn) [Example 58, (4S)-1-[2-(2,2-difluorocyclopropyl)ethyl]-5,5-difluoro-3-(trifluoromethyl)-4,6-dihydrocyclopenta[c]pyrazol-4-ol] |
| < 6.00 | < 6.00 | < 6.00 | 3 | O[C@H]1c2c(C(F)(F)F)nn(CCOC(F)(F)F)c2CCC1(F)F [Example 60, (4S)-5,5-difluoro-1-[2-(trifluoromethoxy)ethyl]-3-(trifluoromethyl)-6,7-dihydro-4H-indazol-4-ol] |

The remaining lines, values behind:

| Compound | pIC50 [1] | pIC50 (HIF-2α [2]) | pIC50 (HIF-2α [3]) | Serum Shift (approximate) (HIF-2α [3]) |
| --- | --- | --- | --- | --- |
| O[C@H]1c2c(C(F)(F)F)nn(CCSC(F)(F)F)c2CCC1(F)F [Example 7, (4S)-5,5-difluoro-3-(trifluoromethyl)-1-[2-(trifluoromethylsulfanyl)ethyl]-6,7-dihydro-4H-indazol-4-ol] | > 7.00 | > 7.00 | 6.00 to 7.00 | 5 |
| OC(CCn1nc(C(F)(F)F)c2c1CCC(F)(F)[C@H]2O)C(F)(F)F (stereo partly drawn) [Example 16, (4S)-5,5-difluoro-1-(4,4,4-trifluoro-3-hydroxybutyl)-3-(trifluoromethyl)-6,7-dihydro-4H-indazol-4-ol] | 6.00 to 7.00 | 6.00 to 7.00 | < 6.00 | 22 |
| O[C@H]1c2c(C(F)(F)F)nn(CCC3CC3(F)F)c2CCC1(F)F (stereo partly drawn) [Example 20, (4S)-1-[2-(2,2-difluorocyclopropyl)ethyl]-5,5-difluoro-3-(trifluoromethyl)-4,5,6,7-tetrahydro-1H-indazol-4-ol] | > 7.00 | > 7.00 | 6.00 to 7.00 | 7 |
| CC(CCn1nc(C(F)(F)F)c2c1CCC(F)(F)[C@H]2O)C(F)(F)F (stereo partly drawn) [Example 38, (4S)-5,5-difluoro-3-(trifluoromethyl)-1-(4,4,4-trifluoro-3-methylbutyl)-6,7-dihydro-4H-indazol-4-ol] | > 7.00 | 6.00 to 7.00 | 6.00 to 7.00 | 8 |
| CCCCn1nc(C(F)(F)F)c2c1CCC(F)(F)[C@H]2O [Example 39, (4S)-1-butyl-5,5-difluoro-3-(trifluoromethyl)-6,7-dihydro-4H-indazol-4-ol] | 6.00 to 7.00 | 6.00 to 7.00 | < 6.00 | >39 |
| CC(C)CCn1nc(C(F)(F)F)c2c1CCC(F)(F)[C@H]2O [Example 40, (4S)-5,5-difluoro-1-(3-methylbutyl)-3-(trifluoromethyl)-6,7-dihydro-4H-indazol-4-ol] | 6.00 to 7.00 | 6.00 to 7.00 | < 6.00 | 31 |
| O[C@H]1c2c(C(F)(F)F)nn(CCCC(F)(F)F)c2CCC1(F)F [Example 41, (4S)-5,5-difluoro-1-(4,4,4-trifluorobutyl)-3-(trifluoromethyl)-6,7-dihydro-4H-indazol-4-ol] | > 7.00 | > 7.00 | 6.00 to 7.00 | 12 |
| CS(=O)(=O)CCn1nc(C(F)(F)F)c2c1CCC(F)(F)[C@H]2O [Example 42, (4S)-5,5-difluoro-1-(2-methylsulfonylethyl)-3-(trifluoromethyl)-6,7-dihydro-4H-indazol-4-ol] | 6.00 to 7.00 | 6.00 to 7.00 | < 6.00 | 6 |
| O[C@H]1c2c(C(F)(F)F)nn(CCC3CC(F)(F)C3)c2CCC1(F)F [Example 44, (4S)-1-[2-(3,3-difluorocyclobutyl)ethyl]-5,5-difluoro-3-(trifluoromethyl)-6,7-dihydro-4H-indazol-4-ol] | 6.00 to 7.00 | 6.00 to 7.00 | < 6.00 | 6 |
| O=S1(=O)CC(Cn2nc(C(F)(F)F)c3c2CCC(F)(F)[C@H]3O)C1 [Example 46, (4S)-1-[(1,1-dioxothietan-3-yl)methyl]-5,5-difluoro-3-(trifluoromethyl)-6,7-dihydro-4H-indazol-4-ol] | 6.00 to 7.00 | 6.00 to 7.00 | 6.00 to 7.00 | 2 |
